Measured values from patent publication US5466673A, “Method of inhibiting calcium precipitation in an intraocular irrigating solution” (Senju Pharmaceutical Co., Ltd., priority 1993, dated 1995).

System: blood-aqueous barrier of the eye
Assay: Effect of the present compound on the blood-aqueous barrier of the eye (anterior chamber irrigation, carboxy-fluorescein leakage)
Assay type: in vivo, White rabbits
Conditions: mean ± S.E.
Experimental: White rabbits weighing about 2.5 kg were used.
Physiological saline, 0.06, 0.6 and 6 mM solutions of DCE-GS in physiological saline, and a 0.3 mM solution of GSSG (oxidized glutathione)in physiological saline were used as intraocular irrigating solutions and their effects on the blood-aqueous barrier of the eye were evaluated.
Two 23 G needles connected to a polyethylene tube were gently inserted into the anterior chamber of the eye of rabbits under anesthesia (ketamine hydrochloride: xylazine hydrochloride=1:1) and 0.5 ml/kg of 1% carboxy-fluorescein was injected into the auricular vein immediately before irrigation. Using a syringe pump, the intraocular irrigating solution was infused at the rate of 1.5 ml/min. and 25 μl of the outflowing intraocular irrigating solution and the blood were respectively collected at 15-minute intervals over the period of 1 hour and the intensity of florescence of each sample was determined with a spectrophotofluorometer. The collected blood was mixed with 2.5 ml of physiological saline and the mixture was centrifuged at 3000 rpm to separate the supernatant for use as a sample.
The degree (4) of protein leakage was calculated by means of the following equation. (Intensity of fluorescence of irrigating solution/intensity of fluorescence of blood)×100 (%)

Molecule	degree of protein leakage (0.06 mM in physiological saline, irrigation 1.5 ml/min, time 15 min, n 7) [%]	degree of protein leakage (0.06 mM in physiological saline, time 30 min, n 7) [%]	degree of protein leakage (0.06 mM in physiological saline, time 45 min, n 7) [%]	degree of protein leakage (0.06 mM in physiological saline, time 60 min, n 7) [%]	degree of protein leakage (0.6 mM in physiological saline, time 15 min, n 8) [%]	degree of protein leakage (0.6 mM in physiological saline, time 30 min, n 8) [%]	degree of protein leakage (0.6 mM in physiological saline, time 45 min, n 8) [%]	degree of protein leakage (0.6 mM in physiological saline, time 60 min, n 8) [%]	degree of protein leakage (6 mM in physiological saline, time 15 min, n 5) [%]	degree of protein leakage (6 mM in physiological saline, time 30 min, n 5) [%]	degree of protein leakage (6 mM in physiological saline, time 45 min, n 5) [%]	degree of protein leakage (6 mM in physiological saline, time 60 min, n 5) [%]	degree of protein leakage (0.3 mM in physiological saline, time 15 min, n 5) [%]	degree of protein leakage (0.3 mM in physiological saline, time 30 min, n 5) [%]	degree of protein leakage (0.3 mM in physiological saline, time 45 min, n 5) [%]	degree of protein leakage (0.3 mM in physiological saline, time 60 min, n 5) [%]
N[C@@H](CCC(=O)N[C@@H](CSC(CC(=O)O)C(=O)O)C(=O)NCC(=O)O)C(=O)O (stereo partly drawn) [DCE-GS, S-(α,β-dicarboxyethyl) glutathione]	0.16 ± 0.02	0.23 ± 0.05	0.11 ± 0.05	0.18 ± 0.03	0.13 ± 0.01	0.19 ± 0.02	0.15 ± 0.02	0.13 ± 0.02	0.13 ± 0.02	0.16 ± 0.02	0.22 ± 0.04	0.15 ± 0.02	–	–	–	–
oxidized glutathione [GSSG, reference compound]	–	–	–	–	–	–	–	–	–	–	–	–	0.22 ± 0.03	0.17 ± 0.01	0.15 ± 0.03	0.15 ± 0.03
